ChEMBL document CHEMBL5726333, “C2-carbocyclic iminothiazine dioxides as BACE inhibitors, compositions, and their use” (2017)

Legend:
Beta-secretase 1 = Beta-secretase 1 (Homo sapiens, UniProt P56817); assay: HTRF FRET Assay: The compounds of the invention were determined to be potent inhibitors of BACE-1 using the following assay.The following reagents were used in this assay. Na+-Acetate pH 5.0; 1% Brij-35; Glycerol; Dimethyl Sulfoxide (DMSO); Recombinant human soluble BACE-1 catalytic domain (>95% pure); APP Swedish mutant peptide substrate (QSY7-APPswe-Eu): QSY7-[…]-Europium-amide.A homogeneous time-resolved FRET assay can be used to determine IC50 values for inhibitors of the soluble human BACE-1 catalytic domain. This assay monitors the increase of 620 nm fluorescence that resulted from BACE-1 cleavage of an APPswedish APPswe mutant peptide FRET substrate (QSY7-[…]-Europium-amide). This substrate contains an N-terminal QSY7 moiety that serves as a quencher of the C-terminal Europium fluorophore (620 nm Em). In the absence of enzyme activity, 620 nm fluorescence is low in the assay and increased linearly over 3 hours in the presence of uninhibited BACE-1 enzyme. Inhibition of BACE-1 cleavage of the QSY7-APPswe-Eu substrate by inhibitors is manifested as a suppression of 620 nm fluorescence.
Chain of Beta-secretase 1 (P56817 whole entry, the tested form may be a part): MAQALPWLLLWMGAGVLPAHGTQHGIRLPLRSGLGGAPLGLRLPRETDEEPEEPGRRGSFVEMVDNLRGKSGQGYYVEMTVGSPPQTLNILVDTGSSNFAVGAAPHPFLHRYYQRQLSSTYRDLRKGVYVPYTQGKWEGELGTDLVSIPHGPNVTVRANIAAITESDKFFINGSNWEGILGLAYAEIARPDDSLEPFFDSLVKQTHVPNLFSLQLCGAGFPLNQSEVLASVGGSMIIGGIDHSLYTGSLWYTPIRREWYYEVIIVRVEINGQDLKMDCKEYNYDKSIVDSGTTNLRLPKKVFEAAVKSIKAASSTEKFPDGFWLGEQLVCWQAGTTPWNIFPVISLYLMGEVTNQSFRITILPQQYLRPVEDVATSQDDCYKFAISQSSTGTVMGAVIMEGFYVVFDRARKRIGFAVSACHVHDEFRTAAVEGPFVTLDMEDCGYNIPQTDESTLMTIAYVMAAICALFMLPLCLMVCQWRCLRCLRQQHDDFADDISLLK

Beta-secretase 2 = target: T1, Beta-secretase 2 (Homo sapiens, UniProt Q9Y5Z0); assay: BACE-2 Assay: The compounds of the invention were determined to be potent inhibitors of BACE-2 using the following assay. Inhibitor IC50s at purified human autoBACE-2 are determined in a time-resolved endpoint proteolysis assay that measures hydrolysis of the QSY7-[…]-Eu-amide FRET peptide substrate (BACE-HTRF assay). BACE-mediated hydrolysis of this peptide results in an increase in relative fluorescence (RFU) at 620 nm after excitation with 320 nm light Inhibitor compounds, prepared at 3× the desired final concentration in 1×BACE assay buffer (20 mM sodium acetate pH 5.0, 10% glycerol, 0.1% Brij-35) supplemented with 7.5% DMSO are pre-incubated with an equal volume of autoBACE-2 enzyme diluted in 1×BACE assay buffer (final enzyme concentration 1 nM) in black 384-well NUNC plates for 30 minutes at 30° C. […] DMSO is present at 5% final concentration in the assay. Following laser excitation of sample wells at 320 nm, the fluorescence signal at 620 nm is collected for 400 ms following a 50 μs delay on a RUBYstar HTRF plate reader (BMG Labtechnologies). Raw RFU data is normalized to maximum (1.0 nM BACE/DMSO) and minimum (no enzyme/DMSO) RFU values.
T1 sequence (Q9Y5Z0 whole entry): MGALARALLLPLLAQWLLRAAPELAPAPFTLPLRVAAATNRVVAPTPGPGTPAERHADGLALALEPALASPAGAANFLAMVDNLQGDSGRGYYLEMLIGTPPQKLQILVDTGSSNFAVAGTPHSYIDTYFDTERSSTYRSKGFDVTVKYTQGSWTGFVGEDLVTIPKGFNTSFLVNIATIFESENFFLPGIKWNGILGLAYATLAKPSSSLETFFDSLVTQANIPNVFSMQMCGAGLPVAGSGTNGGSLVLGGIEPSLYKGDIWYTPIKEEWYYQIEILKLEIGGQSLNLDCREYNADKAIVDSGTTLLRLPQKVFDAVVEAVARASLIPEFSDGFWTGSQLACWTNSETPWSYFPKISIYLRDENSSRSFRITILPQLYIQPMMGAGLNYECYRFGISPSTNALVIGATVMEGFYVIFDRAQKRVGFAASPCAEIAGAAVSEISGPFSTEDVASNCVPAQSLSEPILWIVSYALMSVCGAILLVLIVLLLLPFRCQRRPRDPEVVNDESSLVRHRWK

Cathepsin D = Cathepsin D (Homo sapiens, UniProt P07339); assay: Cathepsin-D Assay: The following reagents were used in this assay: Na+-Acetate pH 5.0; 1% Brij-35; Dimethyl Sulfoxide (DMSO); Purified human Cathepsin-D (>95% pure); Aspartyl protease peptide substrate AC-Cys(Eu_Chelate)-Gly-Lys-Pro_ile_leu_phe-Phe-Arg-Leu-Lys(QSY7)-ASP-ASP-NH2.As noted above, certain compounds of the invention exhibit good selectivity of BACE-1 over Cathepsin-D. A homogeneous …
Chain of Cathepsin D (P07339 65-162 limits assumed): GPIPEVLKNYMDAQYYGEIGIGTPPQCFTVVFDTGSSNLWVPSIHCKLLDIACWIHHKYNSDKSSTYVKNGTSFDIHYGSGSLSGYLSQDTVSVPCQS
Chain of Cathepsin D (P07339 169-412 limits assumed): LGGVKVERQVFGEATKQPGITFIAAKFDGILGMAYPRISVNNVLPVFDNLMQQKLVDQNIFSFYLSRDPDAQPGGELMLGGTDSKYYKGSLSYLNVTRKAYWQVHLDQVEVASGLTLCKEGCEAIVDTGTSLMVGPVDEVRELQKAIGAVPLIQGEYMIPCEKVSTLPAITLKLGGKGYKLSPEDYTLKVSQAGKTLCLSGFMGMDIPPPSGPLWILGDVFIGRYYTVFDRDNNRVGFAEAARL
Description: This substrate contains an C-terminal QSY7 moiety that serves as a quencher of the N-terminal Europium fluorophore (620 nm Em). In the absence of enzyme activity, 620 nm fluorescence is low in the assay and increased linearly over 1 hour in the presence of uninhibited Cathepsin-D enzyme. Inhibition of Cathespin D cleavage of the Eu-Aspartyl Protease-QSY7 substrate by inhibitors is manifested as a suppression of 620 nm fluorescence.

SMILES | Ki (Beta-secretase 1) | Ki (Beta-secretase 2) | Ki (Cathepsin D)
C[C@@]1(c2cc(Nc3ncnc4cc(C#N)cnc34)ncc2F)CS(=O)(=O)[C@@](C)(C2CC2)C(N)=N1 | 0.013 µM | 0.019 µM | > 9.4 µM
CC#CCOc1cnc2c(Nc3cc([C@]4(C)CS(=O)(=O)[C@@](C)(C5CC5)C(N)=N4)c(F)cn3)nccc2n1 | 0.0015 µM | 0.0012 µM | > 9.4 µM
COc1cnc2c(Nc3ccc(F)c([C@]4(C)CS(=O)(=O)[C@@](C)(C5CC5)C(N)=N4)c3)ccnc2n1 | 0.04 µM | 0.053 µM | > 9.4 µM
CC#CCOc1cnc2c(Nc3cnc(F)c([C@]4(C)CS(=O)(=O)[C@@](C)(C5CC5)C(N)=N4)c3)nccc2n1 | 0.0018 µM | 0.024 µM | > 9.4 µM
CC#CCOc1cnc2c(Nc3cnc(F)c([C@]4(C)CS(=O)(=O)[C@@](C)(C5CC5)C(N)=N4)c3)nccc2c1 | 0.0028 µM | 0.12 µM | > 9.4 µM
C[C@@]1(c2cc(Nc3nccc4cc(F)cnc34)ncc2F)CS(=O)(=O)[C@@](C)(C2CC2)C(N)=N1 | 0.012 µM | 0.001 µM | > 9.4 µM
COc1cnc2c(Nc3cc([C@]4(C)CS(=O)(=O)[C@@](C)(C5CC5)C(N)=N4)c(F)cn3)ccnc2n1 | 0.0052 µM | 0.0022 µM | > 9.4 µM
C[C@@]1(c2cc(Nc3nccc4cc(C#N)cnc34)ccc2F)CS(=O)(=O)[C@@](CF)(C2CC2)C(N)=N1 | 0.0013 µM | 0.0006 µM | 0.563 µM
C[C@@]1(c2cc(Nc3ccnc4cc(F)cnc34)ncc2F)CS(=O)(=O)[C@@](C)(C2CC2)C(N)=N1 | 0.0085 µM | 0.0017 µM | 4.9 µM
C[C@@]1(c2cc(Nc3ccnc4cccnc34)ncc2F)CS(=O)(=O)[C@@](C)(C2CC2)C(N)=N1 | 0.059 µM | 0.0036 µM | > 9.4 µM
COc1cnc2c(Nc3ccc(F)c([C@]4(C)CS(=O)(=O)[C@@](C)(C5CC5)C(N)=N4)c3)ccnc2c1 | 0.027 µM | 0.02 µM | > 9.4 µM
